The source of these data is article PMC10039877 (Scientific Reports, 2023).

What is called Ki is a measure of affinity in units of concentration, obtained from inhibition or displacement. Higher therefore signals a looser hold on the target. Broadly, the IC50 is the point on the concentration scale where inhibition reaches its midpoint.

Each structure is given as a SMILES string. Several values for one entry are separate records, joined by “and”; a condition that tells them apart may be missing. Equal entries are not always repeated.

T1 sequence (P81908 whole entry): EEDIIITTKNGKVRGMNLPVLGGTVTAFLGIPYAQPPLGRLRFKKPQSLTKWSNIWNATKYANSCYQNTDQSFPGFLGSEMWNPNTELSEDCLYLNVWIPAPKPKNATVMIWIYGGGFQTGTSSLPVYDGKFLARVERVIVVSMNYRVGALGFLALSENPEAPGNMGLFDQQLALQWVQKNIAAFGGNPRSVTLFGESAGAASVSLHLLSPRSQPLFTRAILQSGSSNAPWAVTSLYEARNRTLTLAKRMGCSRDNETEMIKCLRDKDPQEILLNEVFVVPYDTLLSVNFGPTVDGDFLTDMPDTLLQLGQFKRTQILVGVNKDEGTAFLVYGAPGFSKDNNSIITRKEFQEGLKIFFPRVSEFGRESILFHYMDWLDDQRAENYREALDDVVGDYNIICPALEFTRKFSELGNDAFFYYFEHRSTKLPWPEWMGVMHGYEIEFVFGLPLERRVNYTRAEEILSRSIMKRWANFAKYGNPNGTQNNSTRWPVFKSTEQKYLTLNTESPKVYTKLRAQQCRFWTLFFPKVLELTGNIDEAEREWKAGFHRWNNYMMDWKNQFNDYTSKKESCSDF

For the first assay, the target named is T1, BChE (Equus caballus, UniProt P81908). Kind of assay: Enzyme kinetics study (Lineweaver-Burk plots) of 8c on BChE. Type of assay: biochemical. As to conditions: BTCI substrate 0.05 to 0.8 mM, Lineweaver-Burk. As for the experimental part:
The inhibition type was determined by analyzing the Lineweaver–Burk plots.
All common chemicals were purchased from commercial sources and used without further purification. The water used was distilled water. Reaction progress was monitored using analytical thin layer chromatography (TLC, detected by UV light 254 nm) on precoated silica gel HSGF254 plates (Qingdao Haiyang Chemical Plant, China). Column chromatography was performed on silica gel (200 ~ 300 mesh; Qingdao Dingkang Chemical Inc.). […] Proton coupling patterns are described as singlet (s), doublet (d), double doublet (dd), triplet (t), and multiplet (m). ESI–MS date were recorded on a Waters Quattro Premier XE triquadrupole mass spectrometer (Waters Corporation, USA), while ESI-HRMS date were recorded on a Q-TOF Priemier mass spectrometer (Micromass, Manchester, UK). The enzyme kinetic assay was performed on an EnSpire Enzyme Marker (Thermos Fisher, USA).
Kinetic studies were performed in same method as described in BChE inhibition assays. The substrate (BTCI) at five concentrations (from 0.05 to 0.8 mM) was determined for 8c at different […] to reveal its inhibition model, and reciprocal plots of 1/V versus 1/[S]. The kinetic parameters and apparent inhibition constants were calculated by the “Enzyme kinetics” module of Prism.
For `Cc1cc(C)c(NC(=O)CN(C)C(=O)C(=O)c2c[nH]c3ccccc23)c(C)c1` [8c, 2-(1H-indol-3-yl)-N-(2-(mesitylamino)-2-oxoethyl)-N-methyl-2-oxoacetamide], the affinity, expressed as Ki, was 3.27 µM and the Vmax is recorded as 105.26.

The same assay, now with this note: Lineweaver-Burk plot.
In the case of `Cc1cc(C)c(NC(=O)CN(C)C(=O)C(=O)c2c[nH]c3ccccc23)c(C)c1` [8c, 2-(1H-indol-3-yl)-N-(2-(mesitylamino)-2-oxoethyl)-N-methyl-2-oxoacetamide], the inhibition type result is given as “mixed-type”.

The next assay concerns the target T1, BChE.
Assay: not given
Conditions: previous study; cited from earlier work. Also noted: method as in PMID 33759552.
On to `COc1cccc(NC(=O)CN(C)C(C)C(=O)c2c[nH]c3ccccc23)c1` (stereo not drawn) [compound 970180], for which the inhibition type entry was “mixed-type”.

The target in the next assay is T1, BChE.
Assay: not given
Set-up: method as in PMID 33759552. Conditions: in vitro; found in previous study; read-out: BChE IC50 of starting compound; cited from earlier work.
Turning to `COc1cccc(NC(=O)CN(C)C(C)C(=O)c2c[nH]c3ccccc23)c1` (stereo not drawn) [compound 970180], the concentration for half-maximal inhibition (IC50) is 4.24 ± 0.16 µM.

The next assay deals with T1, BChE. The assay is described as follows: biochemical. Type of assay: biochemical. As to conditions: BChE: IC50 (μM) ± SEM, in vitro, triplicates.
As for `Cc1ccccc1NC(=O)OCCN(C)C(=O)C(=O)c1c[nH]c2ccccc12` [17c, 2-(2-(1H-indol-3-yl)-N-methyl-2-oxoacetamido)ethyl o-tolylcarbamate], the IC50 is over 50 µM.

As for `CN(CCOC(=O)Nc1cccc(Cl)c1)C(=O)C(=O)c1c[nH]c2ccccc12` [17d, 2-(2-(1H-indol-3-yl)-N-methyl-2-oxoacetamido)ethyl (3-chlorophenyl)carbamate], the half-maximal inhibitory concentration (IC50) is over 50 µM.

In turn, `CCc1ccc(NC(=O)OCCN(C)C(=O)C(=O)c2c[nH]c3ccccc23)cc1` [17b, 2-(2-(1H-indol-3-yl)-N-methyl-2-oxoacetamido)ethyl (4-ethylphenyl)carbamate] returned an IC50 of over 50 µM.

Consider `Cc1cccc(NC(=O)OCCN(C)C(=O)C(=O)c2c[nH]c3ccccc23)c1` [17a, 2-(2-(1H-indol-3-yl)-N-methyl-2-oxoacetamido)ethyl m-tolylcarbamate], for which the IC50 is over 50 µM.

The same assay, now with this note: in vitro, triplicates; read-out: BChE: IC50 (μM) ± SEM.
For `Cc1cc(C)c(NC(=O)CN(C)C(=O)C(=O)c2c[nH]c3ccccc23)c(C)c1` [8c, 2-(1H-indol-3-yl)-N-(2-(mesitylamino)-2-oxoethyl)-N-methyl-2-oxoacetamide], the IC50 is < 50 µM and 3.95 µM and 3.94 µM.

With `COc1ccc(NC(=O)CN(C)C(=O)C(=O)c2c[nH]c3ccccc23)c(C)c1` [8b, 2-(1H-indol-3-yl)-N-(2-((4-methoxy-2-methylphenyl)amino)-2-oxoethyl)-N-methyl-2-oxoacetamide], the IC50 is over 50 µM.

On to `Cc1cc(C)c(NC(=O)CNC(=O)C(=O)c2c[nH]c3ccccc23)c(C)c1` [13e, 2-(1H-indol-3-yl)-N-(2-(mesitylamino)-2-oxoethyl)-2-oxoacetamide], for which the half-inhibitory concentration (IC50) was over 50 µM.

On to `COc1ccc(NC(=O)CNC(=O)C(=O)c2c[nH]c3ccccc23)c(OC)c1` [13i, N-(2-((2,4-dimethoxyphenyl)amino)-2-oxoethyl)-2-(1H-indol-3-yl)-2-oxoacetamide], for which the half-maximal inhibitory concentration (IC50) is over 50 µM.

Turning to `Cc1ccccc1NC(=O)CNC(=O)C(=O)c1c[nH]c2ccccc12` [13g, 2-(1H-indol-3-yl)-2-oxo-N-(2-oxo-2-(o-tolylamino)ethyl)acetamide], the concentration for half-maximal inhibition (IC50) is over 50 µM.

Turning to `Cc1ccc(NC(=O)CNC(=O)C(=O)c2c[nH]c3ccccc23)cc1C` [13c, N-(2-((3,4-dimethylphenyl)amino)-2-oxoethyl)-2-(1H-indol-3-yl)-2-oxoacetamide], the half-inhibitory concentration (IC50) is over 50 µM.

Turning to `COc1ccc(NC(=O)CNC(=O)C(=O)c2c[nH]c3ccccc23)cc1` [13b, 2-(1H-indol-3-yl)-N-(2-((4-methoxyphenyl)amino)-2-oxoethyl)-2-oxoacetamide], the IC50 was over 50 µM.

For `O=C(CNC(=O)C(=O)c1c[nH]c2ccccc12)Nc1ccccc1F` [13k, N-(2-((2-fluorophenyl)amino)-2-oxoethyl)-2-(1H-indol-3-yl)-2-oxoacetamide], the 50% inhibitory concentration (IC50) is over 50 µM.

Turning to `CCCCc1ccc(NC(=O)CNC(=O)C(=O)c2c[nH]c3ccccc23)cc1` [13d, N-(2-((4-butylphenyl)amino)-2-oxoethyl)-2-(1H-indol-3-yl)-2-oxoacetamide], the concentration for half-maximal inhibition (IC50) is over 50 µM.

With `COc1cccc(NC(=O)CNC(=O)C(=O)c2c[nH]c3ccccc23)c1` [13j, 2-(1H-indol-3-yl)-N-(2-((3-methoxyphenyl)amino)-2-oxoethyl)-2-oxoacetamide], the concentration for half-maximal inhibition (IC50) is over 50 µM.

For `Cc1ccccc1NC(=O)CN(C)C(=O)C(=O)c1c[nH]c2ccccc12` [8d, 2-(1H-indol-3-yl)-N-methyl-2-oxo-N-(2-oxo-2-(o-tolylamino)ethyl)acetamide], the IC50 was < 50 µM and 19.6 µM.

Regarding `Cc1ccc(NC(=O)CNC(=O)C(=O)c2c[nH]c3ccccc23)cc1Cl` [13h, N-(2-((3-chloro-4-methylphenyl)amino)-2-oxoethyl)-2-(1H-indol-3-yl)-2-oxoacetamide], the IC50 was over 50 µM.

For `Cc1cc(C)cc(NC(=O)CNC(=O)C(=O)c2c[nH]c3ccccc23)c1` [13f, N-(2-((3,5-dimethylphenyl)amino)-2-oxoethyl)-2-(1H-indol-3-yl)-2-oxoacetamide], the concentration for half-maximal inhibition (IC50) was over 50 µM.

For `CN(CC(=O)Nc1ccccc1F)C(=O)C(=O)c1c[nH]c2ccccc12` [8a, N-(2-((2-fluorophenyl)amino)-2-oxoethyl)-2-(1H-indol-3-yl)-N-methyl-2-oxoacetamide], the IC50 was over 50 µM.

Turning to `COc1ccccc1NC(=O)CNC(=O)C(=O)c1c[nH]c2ccccc12` [13a, 2-(1H-indol-3-yl)-N-(2-((2-methoxyphenyl)amino)-2-oxoethyl)-2-oxoacetamide], the concentration for half-maximal inhibition (IC50) was over 50 µM.
